One may read the melting point as the temperature, or range, at which the solid turns liquid.

For 29 compounds, melting point and EC50 results are on record in patent US8563715B2, “Pyrimidine derivative having cell protecting effect and uses thereof” (Zenyaku Kogyo Kabushikikaisha, priority 2008, dated 2013).

Each structure is given as a SMILES string.

Tested on in the first data set: not given
Assay: not given
Conditions: not given
Regarding `CN(C)c1nc(N2CCOCC2)c(F)c(N2CCN(c3ccccc3F)CC2)n1` [Compound 112, 2-dimethylamino-5-fluoro-4-[4-(2-fluorophenyl)piperazin-1-yl]-6-morpholinopyrimidine], the melting point amounted to 95 °C.
Still for that read-out and setting: to `CN(C)c1nc(N2CCOCC2)c(F)c(N2CCN(c3ccc(Cl)cc3)CC2)n1` [Compound 113, 4-[4-(4-chlorophenyl)piperazin-1-yl]-2-dimethylamino-5-fluoro-6-morpholinopyrimidine] belongs 152 °C.
Still for that read-out and setting: the result for `OC1(c2ccccc2)CCN(c2nc(N3CCOCC3)c(F)c(N3CCOCC3)n2)CC1` [Compound 116, 5-fluoro-2-(4-hydroxy-4-phenylpiperidin-1-yl)-4,6-dimorpholinopyrimidine] reads 177 to 180 °C.
On the same count and under the same terms, the result for `OC1(c2ccccc2)CCN(c2nc(N3CCOCC3)nc(N3CCOCC3)c2F)CC1` [Compound 117, 5-fluoro-4-(4-hydroxy-4-phenylpiperidin-1-yl)-2,6-dimorpholinopyrimidine] reads 128 to 131 °C.
Regarding `CC(=O)C1(c2ccccc2)CCN(c2nc(N3CCOCC3)c(F)c(N3CCOCC3)n2)CC1` [Compound 118, 2-(4-acetyl-4-phenylpiperidin-1-yl)-5-fluoro-4,6-dimorpholinopyrimidine], the melting point lay within 201 to 205 °C.
Still for that read-out and setting: to `Fc1c(N2CCOCC2)nc(N2CC=C(c3ccccc3)CC2)nc1N1CCOCC1` [Compound 120, 5-fluoro-4,6-dimorpholino-2-[4-phenyl-1,2,5,6-tetrahydropyridin-1-yl]pyrimidine] belongs 132 to 135 °C; to `Fc1c(N2CCOCC2)nc(N2CCOCC2)nc1N1CCN(C2CCCCC2)CC1` [Compound 124, 4-(4-cyclohexylpiperazin-1-yl)-5-fluoro-2,6-dimorpholinopyrimidine], 125 to 128 °C; to `Cc1ccccc1N1CCN(c2nc(N3CCN(c4ccccc4F)CC3)nc(N3CCOCC3)c2F)CC1` [Compound 127, 5-fluoro-2-[4-(2-fluorophenyl)piperazin-1-yl]-4-[4-(2-methylphenyl)piperazin-1-yl]-6-morpholinopyrimidine], 71 to 72 °C.
Compound `Cc1ccccc1N1CCN(c2nc(N3CCOCC3)c(F)c(N3CCN(c4ccccc4C)CC3)n2)CC1` [Compound 129, 2,4-bis[4-(2-methylphenyl)piperazin-1-yl]-5-fluoro-6-morpholinopyrimidine] came in with a melting point of 106 to 107 °C.
Same read-out and setting: to `Clc1c(N2CCOCC2)nc(N2CCN(c3ccccc3)CC2)nc1N1CCOCC1` [Compound 130, 5-chloro-4,6-dimorpholino-2-(4-phenylpiperazin-1-yl)pyrimidine] belongs 131 to 133 °C.
Compound `Nc1c(N2CCOCC2)nc(/C=C/c2cccs2)nc1N1CCOCC1` [Compound 132, 5-amino-4,6-dimorpholino-2-[2-(2-thienyl)vinyl]pyrimidine] displayed a melting point of 221 to 223 °C.
Still for that read-out and setting: to `Nc1c(N2CCOCC2)nc(/C=C/c2ccncc2)nc1N1CCOCC1` [Compound 134, 5-amino-4,6-dimorpholino-2-[2-(pyridin-4-yl)vinyl]pyrimidine] belongs 216 to 220 °C; to `Nc1c(N2CCOCC2)nc(/C=C/c2ccc(F)cc2)nc1N1CCOCC1` [Compound 135, 5-amino-2-[2-(4-fluorophenyl)vinyl]-4,6-dimorpholinopyrimidine], 193 to 195 °C.
As for `Cc1ccccc1/C=C/c1nc(N2CCOCC2)c(N)c(N2CCOCC2)n1` [Compound 137, 5-amino-2-[2-(2-methylphenyl)vinyl]-4,6-dimorpholinopyrimidine], the melting point was 151 to 154 °C.
On the same count and under the same terms, the result for `COc1ccc(/C=C/c2nc(N(C)C)c(N)c(N3CCOCC3)n2)cc1` [Compound 138, 5-amino-4-dimethylamino-2-[2-(4-methoxyphenyl)vinyl]-6-morpholinopyrimidine] reads 130 to 133 °C.
Same read-out and setting: the result for `CN(C)c1c(N2CCOCC2)nc(N2CCN(c3ccccc3)CC2)nc1N1CCOCC1` [Compound 141, 5-dimethylamino-4,6-dimorpholino-2-(4-phenylpiperazin-1-yl)pyrimidine] reads 208 to 210 °C; that for `O=Cc1c(N2CCOCC2)nc(N2CCN(c3ccccc3)CC2)nc1N1CCOCC1` [Compound 142, 5-formyl-4,6-dimorpholino-2-(4-phenylpiperazin-1-yl)pyrimidine], 162 to 163 °C.
The same measure, in the same setting: to `Cc1cccc(N2CCN(c3nc(N4CCN(C(=O)OC(C)(C)C)CC4)nc(N4CCOCC4)c3F)CC2)c1C` [Compound 177, 2-(4-tert-butoxycarbonylpiperazin-1-yl)-5-fluoro-4-morpholino-6-[4-(2,3-xylyl)piperazin-1-yl]pyrimidine] belongs 81 to 82 °C; to `CC(C)(C)OC(=O)N1CCN(c2nc(N3CCN(c4ccccc4F)CC3)nc(N3CCOCC3)c2F)CC1` [Compound 181, 4-(4-tert-butoxycarbonylpiperazin-1-yl)-5-fluoro-2-[4-(2-fluorophenyl)piperazin-1-yl]-6-morpholinopyrimidine], 137 to 138 °C; to `Fc1ccccc1N1CCN(c2nc(N3CCNCC3)c(F)c(N3CCOCC3)n2)CC1` [Compound 182, 5-fluoro-2-[4-(2-fluorophenyl)piperazin-1-yl]-4-morpholino-6-(1-piperazinyl)pyrimidine], 51 to 52 °C.
For `Cc1cccc(N2CCN(c3nc(N4CCN(C)CC4)nc(N4CCOCC4)c3F)CC2)c1C` [Compound 183, 5-fluoro-2-(4-methylpiperazin-1-yl)-4-morpholino-6-[4-(2,3-xylyl)piperazin-1-yl]pyrimidine], the melting point lay in the range of 56 to 57 °C.
Same read-out and setting: the result for `Cc1cccc(N2CCN(c3nc(N4CCOCC4)c(F)c(N4CCN(C)CC4)n3)CC2)c1C` [Compound 184, 5-fluoro-4-(4-methylpiperazin-1-yl)-6-morpholino-2-[4-(2,3-xylyl)piperazin-1-yl]pyrimidine] reads 67 to 68 °C; that for `CN1CCN(c2nc(N3CCN(c4ccccc4F)CC3)nc(N3CCOCC3)c2F)CC1` [Compound 185, 5-fluoro-2-[4-(2-fluorophenyl)piperazin-1-yl]-4-(4-methylpiperazin-1-yl)-6-morpholinopyrimidine], 128 to 129 °C.
Same read-out and setting: the result for `Cc1cccc(N2CCN(c3nc(N4CCOCC4)nc(N4CCN(C)CC4)c3F)CC2)c1C` [Compound 186, 5-fluoro-4-(4-methylpiperazin-1-yl)-2-morpholino-6-[4-(2,3-xylyl)piperazin-1-yl]-pyrimidine] reads 67 to 68 °C.
On to `CC(C)(C)OC(=O)N1CCN(c2nc(N3CCN(c4ccccc4Cl)CC3)nc(N3CCOCC3)c2F)CC1` [Compound 188, 4-(4-tert-butoxycarbonylpiperazin-1-yl)-2-[4-(2-chlorophenyl)piperazin-1-yl]-5-fluoro-6-morpholinopyrimidine], for which the melting point fell in the range of 75 to 76 °C.
Still for that read-out and setting: to `Fc1c(N2CCNCC2)nc(N2CCN(c3ccccc3Cl)CC2)nc1N1CCOCC1` [Compound 189, 2-[4-(2-chlorophenyl)piperazin-1-yl]-5-fluoro-4-morpholino-6-(1-piperazinyl)pyrimidine] belongs 70 to 71 °C; to `Cc1cccc(N2CCN(c3nc(N4CCN(Cc5ccc(NC(=O)OC(C)(C)C)cc5)CC4)nc(N4CCOCC4)c3F)CC2)c1C` [Compound 193, 2-[4-(4-tert-butoxycarbonylaminobenzyl)piperazin-1-yl]-5-fluoro-4-morpholino-6-[4-(2,3-xylyl)piperazin-1-yl]pyrimidine], 104 to 105 °C.
Take `Cc1cccc(N2CCN(c3nc(N4CCN(Cc5ccc(N)cc5)CC4)nc(N4CCOCC4)c3F)CC2)c1C` [Compound 194, 2-[4-(4-aminobenzyl)piperazin-1-yl]-5-fluoro-4-morpholino-6-[4-(2,3-xylyl)piperazin-1-yl]pyrimidine]: the melting point lay in the range of 77 to 78 °C.

The subject of another data set is astrocyte/neuron co-culture. The experiment in a line: Brain cell damage induced by hydrogen peroxide treatment (LDH assay). It is filed as cell-based. The note with it: Rattus norvegicus, hydrogen peroxide (250 μM), 24 hours, read-out: 50% inhibition concentration against cell damage in entire co-culture system (EC50 value). Here is the method:
The brain was removed from 1 to 2 day old Wistar rats (Charles River) or Sprague-Dawley (IGS) rats (Charles River), and the cerebral cortex including the hippocampus was excised under ice cooling. After this cerebral cortex was minced, it was digested with papain solution (9 U/ml) containing DNase I (30 U/ml) at 37 degrees Celsius for 15 minutes, dispersing the cells. After further carrying out mechanical dispersing by pipetting, it was passed through a cell strainer with a pore size of 70 μm, and a cell suspension was obtained. Cells derived from 1.4 cerebra were seeded on 150 mm tissue culture dish (Iwaki Glass), and primary culture was carried out at 37 degrees Celsius and 5% CO2 using a D-MEM medium (Invitrogen) containing 10% heat-inactivated fetal calf serum (JRH). One day after the start of the culture, the nonadherent cells were removed, and the primary cultured astrocytes were obtained by continuing the culture for 4 to 5 further days. The primary cultured astrocytes were dispersed by trypsin treating, suspended in cryopreservation solution, and cryopreserved.
After thawing the cryopreserved primary cultured astrocytes, they were seeded on tissue culture plates (Iwaki Glass), and a confluent astrocyte layer was produced by a further 7 days of secondary culture using a D-MEM medium containing 10% heat-inactivated fetal calf serum. Neurons to be used in the co-culture with the astrocyte layer were obtained from fetal rat cerebrum. Briefly, brains were removed from Wistar rats (Charles River) or Sprague-Dawley (IGS) rats (Charles River) of embryonic age 18.5 days, and the cerebral cortex including the hippocampus was excised under ice cooling. After this cerebral cortex was minced, it was digested in papain solution (9 U/ml) containing DNase I (30 U/ml) at 37 degrees Celsius for 15 minutes, dispersing the cells. After further carrying out mechanical dispersing by pipetting, it was passed through a cell strainer with a pore size of 70 μm, and a cell suspension was obtained. This cell suspension was plated at a density of 1.3×10^5 cells/cm^2 on the astrocyte layer, and a co-culture was carried out using D-MEM/F-12 medium (Invitrogen) containing 10% heat-inactivated fetal calf serum and 5% horse serum (Invitrogen). 2 days after the start of the co-culture, cells were treated for 24 hours with 10 μM cytosine arabinoside in order to suppress the excessive cell proliferation of microglia and the like. 8 to 9 days after the start of the co-culture, cells were used for the test. Additionally, using one portion of the cells, immunofluorescent staining and nuclear staining was carried out with astrocyte recognizing antibodies (anti-GFAP) and neuron recognizing antibodies (anti-MAP2), in order to confirm that the present culture system is a co-culture system of astrocytes and neurons.
An astrocyte/neuron co-culture cultured on a 96 well plate was used in the test. A predetermined concentration of the test substance and hydrogen peroxide (250 μM) was simultaneously added to the cell culture in each well with continuing cultivation, and analysis was done 24 hours after this treatment. Using an LDH Cytotoxicity Detection Kit (Takara Bio), analysis was carried out in accordance with the included instruction manual, and the damage to the entire co-culture system by the hydrogen peroxide treatment and the protective effect (EC 50 value) of the test substance was evaluated. Further, the cell bodies and the neuronal processes of the neurons were observed by microscope, and the neuroprotective effect was evaluated.
Turning to `c1ccc2c(c1)CCN(c1nc(N3CCOCC3)cc(N3CCOCC3)n1)C2` [Compound 6, 4,6-dimorpholino-2-(1,2,3,4-tetrahydro-2H-isoquinolin-2-yl)pyrimidine], the EC50 amounted to 8.24 µM.
